The text below walks through data of patent US6852754B1, “Biologically active linderazulene terpenes” (Harbor Branch Oceanographic Institution, Inc., priority 2004, dated 2005).

The test system of assay [1] is PANC-1 human pancreatic cell line. The experiment in a line: Antiproliferative MTT assay, PANC-1 cells, 72 hours exposure. The format is cell-based. As to the method:
(§1) Compounds I and II was analyzed as to their effect on the proliferation of PANC-1 human pancreatic and P388 murine leukemia cell lines. P388 cells were obtained from Dr. R. Camalier, National Cancer Institute, Bethesda, Md., and PANC-1 cells were obtained from American Type Culture Collection, Rockville, Md. All cell lines were maintained in tissue culture medium (TCM; Roswell Park Memorial Institute RPMI 1640 supplemented with 100 U/mL penicillin, […] streptomycin, […] 1-glutamine, 18 mM HEPES, 0.05 mg/mL gentamicin (Life Technologies, Gaithersburg, Md.) and 10% fetal bovine serum) and cultured in plastic tissue culture flasks at 37° C. in humidified air containing 5% CO2. Stock cultures of P388 cells were subcultured 1:20 in fresh TCM every 2 to 3 days. Stock cultures of […] cells were subcultured 1:10 every 3 to 4 days. To assess the antiproliferative effects of agents against the cells, […] cultures (96-well tissue culture plates, Nunc, Denmark) were established at 1×10^5 cells/mL in TCM or TCM containing the test agent at 0.03-5.0 μg/mL. After 48-h exposures, P388 cells were enumerated using 3-[4,5-dimethylthiazol-2-yl]-2,5-diphenyltetrazolium bromide (MTT) as described in the literature (M. C. Alley, et al., Cancer Res. 48:589, 1988). […] The results were expressed as percent inhibition compared to the negative (no drug) control. […]
(In general: Tetrazolium assays rely on reduction of a dye to a coloured formazan, in cell work by metabolically active cells.)

Assay [2] has as its system P388 murine leukemia cell line. The experiment in a line: Antiproliferative MTT assay, P388 cells, 48-h exposure. The format is cell-based. Conditions: Mus musculus, read-out: P388 (IC50 μg/ml). As to the method:
as §1

As to `COC(=O)c1ccc2c(C)cc3occc3cc1-2` [11-carbomethoxylinderazulene (I), 11-carbomethoxylinderazulene], the IC50 worked out at 18.7 µg/mL in assay [1] (Homo sapiens, read-out: PANC-1 (IC50 μg/ml)) and 2.7 µg/mL in assay [2].
As to `Cc1cc2occc2cc2c(C=O)ccc1-2` [11-formyllinderazulene (II), 11-formyllinderazulene], the “PANC-1 (IC50 μg/ml)” value in assay [1] is on record as “No inhibition of cell”. Further, in assay [2], the IC50 is 15.6 µg/mL.
